Key:
LRRK2 (G2019S) = LRRK2 (G2019S) (Homo sapiens, UniProt Q5S007, G2019S); test: LRRK2 G2019S enzyme inhibition, ADP-Glo kinase assay; assay type: biochemical; design: purchased SignalChem L10-12GG; conditions: ATP 25 μM
Procedure, shortened: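 Purified human LRRK2 G2019S (16 ng) with 25 μM ATP and 0.2 μg substrate, 2 h at 25° C. in Tris-HCl pH 7.4, MgCl2, BSA, DTT buffer; compounds at 12 final concentrations, 50 μM down to 0.000001024 μM. ADP-Glo luminescence versus solvent control gave IC50.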

MDA-MB-231 cell line = test: Inhibition of proliferation of MDA-MB-231 cancer cells (Cell Titer-Glo); assay type: cell-based; conditions: Homo sapiens, 72 hours
Experimental: (§1) To evaluate an inhibitory effect on the proliferation of cancer cells, each of an MDA-MB-231 cell line (Korean Cell Line Bank #30026) and an MDA-MB-468 cell line as triple-negative breast cancer cell lines, and SHP-77 (ATCC #CRL-2195) as a small-cell lung cancer cell line was cultured in DMEM (HyClone #SH30243) or an RPMI medium (HyClone #SH3027.01) to analyze a cell growth rate. More specifically, a cell line was plated on a 96-well flat bottom plate (Corning #3903) at a density of 2,000 cells/100 μL per well, and then treated with 11 concentrations of the Example compound, a solution of which was diluted 3-fold so that a final concentration of the compound was 10.000000, 3.333333, 1.111111, 0.370370, 0.123457, 0.041152, 0.013717, 0.004572, 0.001524, 0.000508, and 0.000169 μM. After 72 hours, each of the culture media was treated with 100 μL of Cell Titer-Glo (Promega G7573), and then cultured at room temperature for 10 minutes. Then, a degree of luminescence was measured using a microplate reader. A GI50 value was calculated from the measured degree of luminescence using Prism (Version 8.2 GraphPad) software.

LRRK2 = LRRK2 (Homo sapiens, UniProt Q5S007); test: LRRK2 enzyme inhibition, ADP-Glo kinase assay; assay type: biochemical; design: purchased Invitrogen PR8604B; conditions: ATP 10 μM
LRRK2, sequence (Q5S007 970-2527 limits assumed): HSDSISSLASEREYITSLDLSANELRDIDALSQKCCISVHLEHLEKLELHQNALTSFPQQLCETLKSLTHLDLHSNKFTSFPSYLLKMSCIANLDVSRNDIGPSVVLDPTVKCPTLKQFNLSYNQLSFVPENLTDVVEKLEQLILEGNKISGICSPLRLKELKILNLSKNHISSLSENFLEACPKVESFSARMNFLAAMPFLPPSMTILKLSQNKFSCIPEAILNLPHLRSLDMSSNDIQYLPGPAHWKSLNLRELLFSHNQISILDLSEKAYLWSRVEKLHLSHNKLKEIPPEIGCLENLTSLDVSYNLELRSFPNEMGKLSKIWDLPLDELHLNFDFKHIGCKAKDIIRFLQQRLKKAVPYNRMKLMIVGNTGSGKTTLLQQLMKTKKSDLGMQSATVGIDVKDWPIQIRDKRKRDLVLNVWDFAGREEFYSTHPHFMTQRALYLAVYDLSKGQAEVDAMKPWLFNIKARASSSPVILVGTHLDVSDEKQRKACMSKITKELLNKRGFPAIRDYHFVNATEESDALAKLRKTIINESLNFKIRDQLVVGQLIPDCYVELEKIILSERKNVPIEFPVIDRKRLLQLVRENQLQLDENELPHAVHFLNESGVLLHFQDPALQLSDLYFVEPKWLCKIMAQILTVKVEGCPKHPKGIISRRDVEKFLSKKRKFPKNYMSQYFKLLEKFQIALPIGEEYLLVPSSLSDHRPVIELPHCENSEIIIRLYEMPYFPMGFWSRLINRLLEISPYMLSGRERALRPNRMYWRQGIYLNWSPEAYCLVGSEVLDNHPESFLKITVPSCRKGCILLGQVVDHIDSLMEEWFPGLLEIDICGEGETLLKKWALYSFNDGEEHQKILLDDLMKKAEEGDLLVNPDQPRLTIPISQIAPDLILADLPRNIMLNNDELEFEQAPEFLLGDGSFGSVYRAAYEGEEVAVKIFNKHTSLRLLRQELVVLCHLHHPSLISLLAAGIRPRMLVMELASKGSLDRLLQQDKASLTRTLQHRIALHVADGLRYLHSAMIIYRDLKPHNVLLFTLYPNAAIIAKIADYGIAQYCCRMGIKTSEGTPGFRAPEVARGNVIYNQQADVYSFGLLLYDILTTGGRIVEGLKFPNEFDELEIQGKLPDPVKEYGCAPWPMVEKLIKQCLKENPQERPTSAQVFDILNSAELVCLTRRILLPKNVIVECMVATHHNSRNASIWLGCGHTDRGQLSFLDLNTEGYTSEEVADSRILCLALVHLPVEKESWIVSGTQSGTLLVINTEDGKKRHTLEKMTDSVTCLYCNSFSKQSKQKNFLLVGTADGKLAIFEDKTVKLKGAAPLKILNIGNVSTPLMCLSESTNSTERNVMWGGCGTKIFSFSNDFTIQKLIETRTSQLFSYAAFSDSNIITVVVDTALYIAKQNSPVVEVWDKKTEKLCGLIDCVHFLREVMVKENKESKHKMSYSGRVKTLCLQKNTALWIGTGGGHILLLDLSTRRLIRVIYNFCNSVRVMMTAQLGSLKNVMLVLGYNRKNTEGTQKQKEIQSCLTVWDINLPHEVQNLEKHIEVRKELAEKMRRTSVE
Procedure, shortened: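 Purified human LRRK2 (25 ng) with 10 μM ATP and 0.2 μg substrate in 40 mM Tris-HCl pH 7.4, 20 mM MgCl2, 0.5 mg/mL BSA, 50 μM DTT, 2 h at 25° C. ADP-Glo luminescence; 12-point compound series from 50 μM final; IC50 relative to solvent control.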

human GST-DYRK1A = target: T1, human GST-DYRK1A (Homo sapiens, UniProt Q13627); test: GST-DYRK1A enzyme inhibition, ADP-Glo kinase assay; assay type: biochemical; conditions: ATP 10 μM, GST-DYRK1A full length, read-out: DYRK1 IC50
T1 construct: purified human GST-DYRK1A (full length, Thermo Scientifics) enzyme; purchased Thermo Scientifics
Procedure, shortened: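 Full-length human GST-DYRK1A (10 ng) with 10 μM ATP and specific substrate in 40 mM Tris-HCl pH 7.4, 20 mM MgCl2, 0.5 mg/mL BSA, 50 μM DTT, 1 h at 25 °C. ADP formation read by ADP-Glo luminescence relative to solvent control; IC50 from three data sets.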

human GST-CLK1 = target: T2, human GST-CLK1 (Homo sapiens, UniProt P49759); test: GST-CLK1 enzyme inhibition, ADP-Glo kinase assay; assay type: biochemical; conditions: ATP 10 μM, GST-CLK1 129-end
T2 construct: purified human GST-CLK1 (129-end, SignalChem) enzyme; purchased SignalChem
T2 sequence (P49759 129-484 limits assumed): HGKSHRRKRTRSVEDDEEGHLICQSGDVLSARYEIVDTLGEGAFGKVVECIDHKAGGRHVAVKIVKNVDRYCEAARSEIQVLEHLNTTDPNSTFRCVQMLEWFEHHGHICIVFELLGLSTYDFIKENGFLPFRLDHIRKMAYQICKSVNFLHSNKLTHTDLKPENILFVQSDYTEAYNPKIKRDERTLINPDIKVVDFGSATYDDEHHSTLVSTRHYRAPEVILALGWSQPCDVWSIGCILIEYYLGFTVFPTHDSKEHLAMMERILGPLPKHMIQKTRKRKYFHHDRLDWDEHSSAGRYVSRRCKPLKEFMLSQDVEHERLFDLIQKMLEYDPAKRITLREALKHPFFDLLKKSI
Procedure, shortened: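 Human GST-CLK1 (129-end, 3 ng) reacted with substrate and 10 μM ATP for 1 h at 25° C in 40 mM Tris-HCl pH 7.4, 20 mM MgCl2, 0.5 mg/mL BSA, 50 μM DTT. ADP-Glo luminescence was normalised to solvent control; IC50 (nM) from 3 data sets.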

MDA-MB-468 cell line = test: Inhibition of proliferation of MDA-MB-468 cancer cells (Cell Titer-Glo); assay type: cell-based; conditions: Homo sapiens, MDA-MB-468, 72 hours
Experimental: as §1

LRRK2 (G2019S), sequence (Q5S007 970-2527 G2019S limits assumed): as the sequence (Q5S007 970-2527 limits assumed) above, with G1050S counted along it

Row | IC50 (LRRK2 (G2019S)) [µM] | GI50 (MDA-MB-231 cell line) [nM] | IC50 (LRRK2) [µM] | IC50 (human GST-DYRK1A) [µM] | IC50 (human GST-CLK1) [µM] | GI50 (MDA-MB-468 cell line) [nM] | Structure (SMILES)
1 | 0.301 to 1 | 101 to 300 | 0.301 to 1 | 0.301 to 1 | 0.301 to 1 | – | COCC(C)(C)Nc1nc(Nc2ccc(S(=O)(=O)N3CCC(N4CCOCC4)CC3)cc2OC)nc2[nH]cc(C(F)(F)F)c12 [Example 176, N^4-(1-methoxy-2-methylpropan-2-yl)-N^2-(2-methoxy-4-((4-morpholinopiperidin-1-yl)sulfonyl)phenyl)-5-(trifluoromethyl)-7H-pyrrolo[2,3-d]pyrimidine-2,4-diamine]
2 | – | – | < 0.1 | 0.301 to 1 | 0.301 to 1 | < 50 | O=C(c1ccc(Nc2nc(NC3CCCCC3)c3cc[nH]c3n2)c2c1CCO2)N1CCOCC1 [Example 244, (7-((4-(cyclohexylamino)-7H-pyrrolo[2,3-d]pyrimidin-2-yl)amino)-2,3-dihydrobenzofuran-4-yl)(morpholino)methanone]
3 | – | – | < 0.1 | 0.301 to 1 | 0.301 to 1 | < 50 | COc1cc(S(=O)(=O)N2CCOCC2)ccc1Nc1nc(NC(C)C)c2c(C#N)c[nH]c2n1 [Example 250, 4-(isopropylamino)-2-((2-methoxy-4-(morpholinosulfonyl)phenyl)amino)-7H-pyrrolo[2,3-d]pyrimidine-5-carbonitrile]
4 | – | – | < 0.1 | 0.301 to 1 | < 0.1 | < 50 | N#Cc1c[nH]c2nc(Nc3ccc(C(=O)N4CCOCC4)c4c3OCC4)nc(NC3CCCC3)c12 [Example 319, 4-(cyclo-pentylamino)-2-((4-(morpholine-4-carbonyl)-2,3-dihydrobenzo-furan-7-yl)amino)-7H-pyrrolo[2,3-d]pyrimidine-5-carbonitrile]
5 | – | – | – | < 0.1 | < 0.1 | 301 to 1000 | N#Cc1c[nH]c2nc(Nc3ccc(C(=O)N4CCC(N5CCOCC5)CC4)c4c3OCC4)nc(NC3CCCC3)c12 [Example 320, 4-(cyclo-pentylamino)-2-((4-(4-morpholino-piperidine-1-carbonyl)-2,3-dihydro-benzofuran-7-yl)amino)-7H-pyrrolo[2,3-d]pyrimidine-5-carbonitrile]

Further lines, the molecule ahead of its results:

Row | Structure (SMILES) | IC50 (LRRK2 (G2019S)) [µM] | GI50 (MDA-MB-231 cell line) [nM] | IC50 (LRRK2) [µM] | IC50 (human GST-DYRK1A) [µM] | IC50 (human GST-CLK1) [µM] | GI50 (MDA-MB-468 cell line) [nM]
6 | O=C(c1ccc(Nc2nc(NC3CCCC3)c3cc[nH]c3n2)c2c1CCO2)N1CCC(N2CCOCC2)CC1 [Example 241, (7-((4-(cyclopentylamino)-7H-pyrrolo[2,3-d]pyrimidin-2-yl)amino)-2,3-dihydrobenzofuran-4-yl)(4-morpholinopiperidin-1-yl)methanone] | – | – | – | 0.301 to 1 | 0.301 to 1 | 301 to 1000
7 | COc1cc(P2(=O)CCN(C3CC3)CC2)ccc1Nc1nc(NC2CCCC2)c2cc[nH]c2n1 [Example 242, 4-(4-((4-(cyclopentylamino)-7H-pyrrolo[2,3-d]pyrimidin-2-yl)amino)-3-methoxyphenyl)-1-cyclopropyl-1,4-azaphosphinane 4-oxide] | – | – | – | 0.301 to 1 | 0.301 to 1 | 301 to 1000
8 | COc1cc(P2(=O)CCN(C3CCOCC3)CC2)ccc1Nc1nc(NC2CCCC2)c2cc[nH]c2n1 [Example 243, 4-(4-((4-(cyclopentylamino)-7H-pyrrolo[2,3-d]pyrimidin-2-yl)amino)-3-methoxyphenyl)-1-(tetrahydro-2H-pyran-4-yl)-1,4-azaphosphinane 4-oxide] | – | – | – | 0.301 to 1 | 0.301 to 1 | 301 to 1000
9 | O=C(c1ccc(Nc2nc(NC3CCCCC3)c3cc[nH]c3n2)c2c1CCO2)N1CCC(N2CCOCC2)CC1 [Example 245, (7-((4-(cyclohexylamino)-7H-pyrrolo[2,3-d]pyrimidin-2-yl)amino)-2,3-dihydrobenzofuran-4-yl)(4-morpholinopiperidin-1-yl)methanone] | – | – | – | 0.301 to 1 | 0.301 to 1 | 51 to 100
10 | N#Cc1c[nH]c2nc(Nc3ccc(C(=O)N4CCOCC4)c4c3OCC4)nc(NC3CCCCC3)c12 [Example 321, 4-(cyclo-hexylamino)-2-((4-(morpholine-4-carbonyl)-2,3-dihydrobenzo-furan-7-yl)amino)-7H-pyrrolo[2,3-d]pyrimidine-5-carbonitrile] | – | – | 0.101 to 0.3 | 0.301 to 1 | 0.101 to 0.3 | < 50

Reference: patent publication US20230066011A1, “PYRROLOPYRIMIDINE DERIVATIVE, AND PHARMACEUTICAL COMPOSITION FOR PREVENTING OR TREATING PROTEIN KINASE-RELATED DISEASE COMPRISING SAME AS ACTIVE INGREDIENT” (VORONOI CO., LTD., priority 2019, published 2023)
